Laboratory results: patent US6864245B2, “Biocompatible poly-β-1→4-N-acetylglucosamine” (priority 1993, dated 2005)
Several values for one entry are separate records, joined by “and”; a condition that tells them apart may be missing. Equal entries are not always repeated. Where two headings read alike, the source gives them in different places.

System: HT29 colon tumors
Settings: Intravenous Injection, daily

O=c1[nH]cc(F)c(=O)[nH]1 [5′-FU, 5′-fluorouracil]
% Change (High Dose): −67.0% | Comments (death) (High Dose): Died day 13 | Tumor Volume Post-treatment (High Dose): 132 mm^3 | Tumor Volume Pre-Treatment (High Dose): 402 mm^3 | Comments (death) (Low Dose): Died day 13 | Tumor Volume Post-treatment (Low Dose): 703 mm^3 and 402 mm^3 | Tumor Volume Pre-Treatment (Low Dose): 402 mm^3
